# System: prostate cancer RM-1 transplanted tumor
# Experiment: mice prostate cancer RM-1 transplanted tumor, in vivo
# Details: male C57/BL6 mice, i.p., Docetaxel 10 mg/kg × 3, 1-1 100 mg/kg × 4
# Method: The experiment procedures are summarized as follows: mice who had prostate cancer RM-1 and grown well were sacrificed by cervical dislocation. Under sterile conditions, tumor mass growing well was stripped off, homogenized, diluted with physiological saline in 1:4. Each mouse was inoculated 0.2 mL of the tumor solution in the armpit and back (approximately 2*10^6 cells). On the next day; the animals were randomized into groups and the administration began. […] The dosing volume was 0.1 mL/10 g. At the same time, docetaxel control group and solvent control group were set. As for the docetaxel group, the animals were administered by intraperitoneal injection at 10 mg/kg dose, the dosing volume was 0.1 mL/10 g. After continuous administration for 10 days, the animals were sacrificed by cervical dislocation, weighed the body and the tumor, respectively. Inhibition rate of tumor growth (%) was calculated, and the results were statistically processed.
smiles,measurement,setting,value
"CC(=O)O[C@@]12CO[C@@H]1C[C@H](O)[C@@]1(C)C(=O)[C@H](O)C3=C(C)[C@@H](OC(=O)[C@H](O)[C@@H](NC(=O)OC(C)(C)C)c4ccccc4)C[C@@](O)([C@@H](OC(=O)c4ccccc4)[C@H]21)C3(C)C [Docetaxel, docetaxel]",Tumor weight,,1.77 ± 0.61 g
same,"body weight of Animals, Final",at sacrifice,18.43 ± 2.17 g
same,"body weight of Animals, Initial",baseline,20.00 ± 1.07 g
same,Inhibition rate of tumor growth,versus solvent control,32%

# Source: patent US20160102066A1, “BENZOTHIAZOLE DERIVATIVE AND ANTI-TUMOR USE THEREOF” (YANTAI UNIVERSITY, priority 2014, published 2016)
